Calls of active or inactive are those of the source. The calls are words filed in the database; no cut-off is given here.
Tests used:
[1] = test system: Mycobacterium tuberculosis; test: (§1) Inhibition of Mycobacterium tuberculosis MTCC 300 DAH7PS expressed in Escherichia coli BL21 (DE3) using 25 to 125 uM PEP/100 uM E4P as substrate by spectrophotometric analysis
[2] = as §1
[3] = test system: Mycobacterium tuberculosis; test: Inhibition of Mycobacterium tuberculosis MTCC 300 DAH7PS expressed in Escherichia coli BL21 (DE3) using 25 to 125 uM PEP/100 uM E4P as substrate up to 50 nM by spectrophotometric analysis
[4] = test system: Mycobacterium tuberculosis; test: Inhibition of Mycobacterium tuberculosis MTCC 300 DAH7PS expressed in Escherichia coli BL21 (DE3) using 25 to 125 uM PEP/100 uM E4P as substrate at 10 uM by spectrophotometric analysis relative to control

Row | Structure (SMILES) | inhibition [1] | IC50 [2] | inhibition [3] | inhibition [4]
1 | Cc1c(C)c2c(c(C)c1O)CC[C@@](C)(CCC[C@H](C)CCC[C@H](C)CCCC(C)C)O2 [ALPHA-TOCOPHEROL] | Dose-dependent effect | 21 µM | inactive | 21%
2 | O=C(/C=C/c1ccc(O)c(O)c1)O[C@@H]1C[C@](O)(C(=O)O)C[C@@H](O)[C@H]1O [CHLOROGENIC ACID] |  | 291 µM | inactive | 9%
3 | C[C@]1(O)CC[C@@H]2C(C(=O)O)=CO[C@@H](O[C@@H]3O[C@H](CO)[C@@H](O)[C@H](O)[C@H]3OC(=O)c3ccc(O)cc3)[C@@H]21 [NEGUNDOSIDE] |  | 159 µM | inactive | 8%
4 | O=Cc1cccnc1 [NICOTINALDEHYDE] | Dose-dependent effect | 54 µM | inactive | 16%
5 | C[C@@H]1O[C@@H](OC[C@H]2O[C@@H](Oc3c(-c4ccc(O)c(O)c4)oc4cc(O)cc(O)c4c3=O)[C@H](O)[C@@H](O)[C@@H]2O)[C@H](O)[C@H](O)[C@H]1O [RUTIN] | Dose-dependent effect | 42 µM | inactive | 17%
6 | N[C@@H](Cc1ccc(O)cc1)C(=O)O [TYROSINE] |  | 13 µM |  | 41%

Reference: ChEMBL document CHEMBL3632512, “Inhibition of 3-deoxy-D-arabino-heptulosonate 7-phosphate synthase from Mycobacterium tuberculosis: in silico screening and in vitro validation” (Eur J Med Chem, 2015)
